Test results taken from patent publication US20250114289A1, “HAIR DYE COMPOSITION” (The Procter & Gamble Company, priority 2023, published 2025).

Assays:
[1] = Solubility of photochromic dyes in cosmetically acceptable solvents; assay type: physicochemical
Excerpt: Thus, it is important to select a solvent that is suitable for use on human skin and hair and enables formulation of a stable hair dye composition with sufficient dye to provide good hair coloring results.

[2] = Activating EMR and deactivating EMR wavelengths of diarylethene photochromic dyes; assay type: physicochemical; settings: for peak activating EMR: FIG. 5; for peak deactivating EMR: FIG. 6
Excerpt: The activation and deactivation properties are illustrated in FIGS. 5 and 6, respectively.

SMILES: Cc1sc(-c2ccccc2)nc1C1=C(c2nc(-c3ccccc3)sc2C)C(F)(F)C(F)(F)C1(F)F [DAE-0012, 4,4′-(perfluorocyclopent-1-ene-1,2-diyl)bis(5-methyl-2-phenylthiazole)]
- Max concentration ([1]; solvent Caprylic triglyceride): 0.91 % w/w
- Max concentration ([1]; solvent Isopropyl isostearate): 2.32 % w/w
- Max concentration ([1]; solvent Isopropyl myristate): 2.25 % w/w
- Max concentration ([1]; solvent Oleyl alcohol): 0.79 % w/w
- Max concentration ([1]; solvent Polysorbate 20): 1.78 % w/w
- Max concentration ([1]; solvent Polysorbate 80): 2.20 % w/w
- peak activating EMR [2]: 290-310 nm
- peak deactivating EMR [2]: 510-540 nm

SMILES: Cc1cc(C)c(C2=C(c3sc(C)cc3C)C(F)(F)C(F)(F)C2(F)F)s1 [DAE-0068, 5,5′-(perfluorocyclopent-1-ene-1,2-diyl)bis(2,4-dimethylthiophene)]
- Max concentration ([1]; solvent Caprylic triglyceride): 3.46 % w/w
- Max concentration ([1]; solvent Isopropyl isostearate): 3.41 % w/w
- Max concentration ([1]; solvent Isopropyl myristate): 3.09 % w/w
- Max concentration ([1]; solvent Oleyl alcohol): 1.34 % w/w
- Max concentration ([1]; solvent Polysorbate 20): 0.95 % w/w
- Max concentration ([1]; solvent Polysorbate 80): 0.89 % w/w
- peak activating EMR [2]: 330-360 nm
- peak deactivating EMR [2]: 410-450 nm

SMILES: Cc1sc(-c2ccccc2)cc1C1=C(c2cc(-c3ccccc3)sc2C)C(F)(F)C(F)(F)C1(F)F [DAE-0001, 3,3′-(perfluorocyclopent-1-ene-1,2-diyl)bis(2-methyl-5-phenylthiophene)]
- Max concentration ([1]; solvent Caprylic triglyceride): 0.66 % w/w
- Max concentration ([1]; solvent Isopropyl isostearate): 4.95 % w/w
- Max concentration ([1]; solvent Isopropyl myristate): 4.8 % w/w
- Max concentration ([1]; solvent Oleyl alcohol): 1.47 % w/w
- Max concentration ([1]; solvent Polysorbate 20): 0.9 % w/w
- Max concentration ([1]; solvent Polysorbate 80): 1.08 % w/w
- peak deactivating EMR [2]: 560-610 nm
